ChEMBL document CHEMBL4308902, “Synthetic approaches to isocarbacyclin and analogues as potential neuroprotective agents against ischemic stroke” (Bioorg Med Chem, 2019)
Active and inactive are the calls of the source. No cut-off for these calls is given here.

Key:
[1] = test system: Cortical neurone; assay: Neuroprotection in mouse embryonic cortical neurons assessed as reduction in glucose deprivation-induced cell death; type: functional, cell-based
[2] = test system: Cortical neurone; assay: Neuroprotection in mouse embryonic cortical neurons assessed as reduction in oxygen and glucose deprivation-induced cell death; type: functional, cell-based
[3] = test system: Cortical neurone; assay: Cytotoxicity against mouse embryonic cortical neurons assessed as reduction in cell viability; type: cell-based

Row | SMILES | Activity [1] | Activity [2] | Activity [3]
1 | C=C[C@@H]1[C@H]2CC(CCCCC(=O)O)=C[C@H]2C[C@H]1O | inactive | inactive | Toxic
2 | CCCCCC/C=C/[C@@H]1[C@H]2CC(CCCCC(=O)O)=C[C@H]2C[C@H]1O | inactive | inactive | Toxic
3 | CCCCCCCCCC/C=C/[C@@H]1[C@H]2CC(CCCCC(=O)O)=C[C@H]2C[C@H]1O | inactive | inactive | Toxic
4 | CCCCC[C@H](O)/C=C/[C@@H]1[C@H]2CC(CCCCC(=O)O)=C[C@H]2C[C@H]1O | inactive | inactive | Toxic
5 | O=C(O)CCCCC1=C[C@H]2C[C@@H](O)[C@H](/C=C/Cc3ccccc3)[C@H]2C1 | inactive | inactive | Toxic
